Measured values published in patent US20250195671A1, “COVALENT ANESTHETIC-POLYMER CONJUGATES FOR PROLONGED LOCAL ANESTHESIA” (priority 2017, published 2025).
Where two headings read alike, the source gives them in different places.

Legend:
[1] = system: sciatic nerve and surrounding tissues; conditions: rat, in vivo
[2] = system: sciatic nerve; conditions: rat, in vivo
[3] = system: rat sciatic nerve; conditions: rat model; cited from earlier work
[4] = cited from earlier work
[5] = in vivo; cited from earlier work
[6] = system: sciatic nerve
[7] = system: rat; conditions: in vivo

N=C1NC(O)[C@H]2[C@@H]3OC4(O)OC(C(O)[C@@]2(N1)[C@@H]4O)[C@]3(O)CO (some centres unmarked) [TTX, Tetrodotoxin]
Median inflammation score (range), Day 4 [1]: 0.5(0-1)
Median inflammation score (range), Day 14 [1]: 0(0-0)
Median myotoxicity score (range), Day 4 [1]: 0(0-0)
Median myotoxicity score (range), Day 14 [1]: 0.5(0-1)^
myotoxicity and inflammation, microscopic examination [1]: did not reveal significant myotoxicity and inflammation
blockade, % of animals [2]: 100%
nerve blockade, % of animals [2]: 100%
successful block, % of animals [2]: 100%

COc1cc(CNC(=O)CCCC/C=C/C(C)C)ccc1O [capsaicin, 8-Methyl-N-vanillyl-trans-6-nonenamide]
minimum effective dose to produce nerve blockade [3]: approximately 50 μg
solubility ([4]; alcohol, fats and oils): freely soluble
solubility ([4]; cold water): insoluble
pharmacokinetic half-life [5]: approximately 24 hours

O=C1OC2(c3ccc(O)cc3Oc3cc(O)ccc32)c2ccccc21 [fluorescein sodium]
fluorescence in the nerve ([6]; 0.25 mg in 0.5 mL of PBS, 1 and 4 hours): No fluorescence was observed in the nerve
fluorescence in the nerve ([6]; 0.25 mg in 0.5 mL of PEG200, four hours after injection): none
fluorescence in the nerve ([6]; 0.25 mg in 0.5 mL of PEG200, one hour after injection): fluorescence was observed throughout the nerve

poly(glycerol sebacate) [TgD8]
Contralateral block (%) [7]: 0%
Mortality (%) [7]: 0%
